Test results reported in patent publication US6017878A (McGill University, priority 1994, dated 2000).
“Also recorded” adds a separate entry of the source.

What was measured:
[1] = tested on: NGF induced neurite outgrowth in PC12 cells; assay: NGF induced neurite outgrowth assay in PC12 cells; type: cell-based, rat; settings: analog ~10 μM, 50 ng/ml NGF; for INHIBITION OF NEURITE OUTGROWTH (1): PC12 cells, arbitrary units by comparison with NGF dose response curves
Description: (§1) All cells were cultured as described. PC12 pheochromocytoma cells expressing rat p140 trkA and p75 LNGFR (American Type Culture Collection, 7th edition, 1992, Catalog of cell lines and hybridomas, R. Hay Editor, accession No. CRL 1721) were grown in DMEM supplemented with 20% Fetal Bovine Serum (FBS), 10% Horse serum, and antibiotics. PC12 cells used for experiments were grown on collagen coated dishes. The NIH-3T3 fibroblast transfectants R7 (p75 and trkA double transfectant) and E25 (trkA transfectant) (Jing, S. et al. (1992) Neuron, 9: 1067-1079; kindly provided by Dr. Mariano Barbacid, Bristol-Meyers-Squibb, NJ) were grown in RPMI media supplemented with 5% FBS and antibiotics and the appropriate drug selection.
(§2) Cells without growth factor added served as baseline, whereas cells with growth factor but without analog added were used for maximum neurite outgrowth determination. All analogs were tested in at least three separate assays from three different synthesis. Samples were coded and analysis were performed blind.
(§3) Representative results for 3 different analogs are shown. For a summary and complete list of the results from these biological tests see Table II.
Significant inhibition is indicated by +++.

[2] = molecular target: T1, E25 (trkA), trkA receptor expressing fibroblast transfectants (Homo sapiens, UniProt P04629); assay: 125I-NGF binding to E25 transfectants, with dose response and saturation studies; settings: analog ~40 μM; for % INHIBITION of 125I-NGF binding, E25 (trkA): mean ±2 SEM
T1 construct: expressed in transfected cells; host or cells: NIH-3T3 mouse fibroblasts (E25), from Dr. Mariano Barbacid; Jing et al. 1992
T1 sequence (P04629 33-790 isoform P04629-2 limits assumed): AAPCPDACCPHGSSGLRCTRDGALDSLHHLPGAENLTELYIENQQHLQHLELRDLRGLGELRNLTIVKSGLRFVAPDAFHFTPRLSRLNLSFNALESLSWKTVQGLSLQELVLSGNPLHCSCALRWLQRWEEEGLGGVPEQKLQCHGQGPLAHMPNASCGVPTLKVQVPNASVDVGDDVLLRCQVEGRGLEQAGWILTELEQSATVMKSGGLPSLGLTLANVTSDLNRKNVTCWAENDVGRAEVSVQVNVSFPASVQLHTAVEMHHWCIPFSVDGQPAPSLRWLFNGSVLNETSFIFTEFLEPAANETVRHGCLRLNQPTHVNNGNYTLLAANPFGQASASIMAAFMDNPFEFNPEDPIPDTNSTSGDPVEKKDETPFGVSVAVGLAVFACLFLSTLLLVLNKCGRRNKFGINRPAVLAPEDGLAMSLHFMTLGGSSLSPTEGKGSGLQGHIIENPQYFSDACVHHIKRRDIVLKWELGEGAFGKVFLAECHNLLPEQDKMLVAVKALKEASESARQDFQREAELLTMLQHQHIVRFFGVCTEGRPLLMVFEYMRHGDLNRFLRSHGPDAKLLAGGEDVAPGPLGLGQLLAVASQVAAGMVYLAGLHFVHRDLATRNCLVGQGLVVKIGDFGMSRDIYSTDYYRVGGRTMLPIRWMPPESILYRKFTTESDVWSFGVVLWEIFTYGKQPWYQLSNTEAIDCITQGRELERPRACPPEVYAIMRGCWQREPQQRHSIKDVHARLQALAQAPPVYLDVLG
Description: as §1
(§4) Assays were performed >4 times, each from at least three different synthesis (inhibitory analogs) or 1-3 times each from 2 different synthesis (non-inhibitory analogs).
(§5) Analogs were used at a concentration of ^~ 40 μM.
(§6) Data shown represents an average percent inhibition of binding ±2 standard errors of the mean (2 SEM). […] NT=not tested. (*) assayed only once.
(§7) Percent inhibition was determined by applying the following formula: [formula]
Saturation binding assays were performed with trkA receptor expressing E25 cells as described above.

[3] = molecular target: T2, R7 (trkA-p75), NIH-3T3 p75 and trkA double transfectant (Homo sapiens, UniProt P04629); assay: 125I-NGF binding to R7 transfectants; settings: analog ~40 μM; for % INHIBITION of 125I-NGF binding, R7 (trkA-p75): mean ±2 SEM
T2 construct: expressed in transfected cells; host or cells: NIH-3T3 mouse fibroblasts (R7), from Dr. Mariano Barbacid; Jing et al. 1992
T2 sequence (P04629 33-796): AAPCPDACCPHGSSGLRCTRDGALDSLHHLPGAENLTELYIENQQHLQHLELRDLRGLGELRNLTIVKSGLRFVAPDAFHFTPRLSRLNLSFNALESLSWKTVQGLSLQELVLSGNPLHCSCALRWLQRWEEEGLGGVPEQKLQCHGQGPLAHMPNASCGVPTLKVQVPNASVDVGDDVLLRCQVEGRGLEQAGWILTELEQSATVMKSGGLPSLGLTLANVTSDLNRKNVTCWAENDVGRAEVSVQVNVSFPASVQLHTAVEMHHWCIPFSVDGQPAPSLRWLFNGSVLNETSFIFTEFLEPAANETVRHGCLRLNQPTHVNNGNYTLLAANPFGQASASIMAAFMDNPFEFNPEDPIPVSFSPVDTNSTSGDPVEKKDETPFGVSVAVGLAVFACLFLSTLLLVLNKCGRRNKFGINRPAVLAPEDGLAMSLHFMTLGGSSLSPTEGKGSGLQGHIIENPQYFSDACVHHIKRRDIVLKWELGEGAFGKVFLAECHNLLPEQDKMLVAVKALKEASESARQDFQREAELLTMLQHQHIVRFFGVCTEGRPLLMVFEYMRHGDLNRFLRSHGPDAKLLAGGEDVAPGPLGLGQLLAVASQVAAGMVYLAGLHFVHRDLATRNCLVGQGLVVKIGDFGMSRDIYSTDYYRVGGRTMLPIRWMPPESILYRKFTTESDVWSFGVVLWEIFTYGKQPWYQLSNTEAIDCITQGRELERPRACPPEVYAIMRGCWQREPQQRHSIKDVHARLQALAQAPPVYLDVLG
Description: as §1, §4, §5, §6, §7

PC12 (trkA-p75) = molecular target: T3, PC12 (trkA-p75) (Rattus norvegicus, UniProt P35739); assay: 125I-NGF binding to PC12 cells; settings: analog ~40 μM; mean ±2 SEM
T3 construct: PC12 pheochromocytoma cells expressing rat p140 trkA and p75 LNGFR; host or cells: PC12 rat pheochromocytoma cells
T3 sequence (P35739 33-799): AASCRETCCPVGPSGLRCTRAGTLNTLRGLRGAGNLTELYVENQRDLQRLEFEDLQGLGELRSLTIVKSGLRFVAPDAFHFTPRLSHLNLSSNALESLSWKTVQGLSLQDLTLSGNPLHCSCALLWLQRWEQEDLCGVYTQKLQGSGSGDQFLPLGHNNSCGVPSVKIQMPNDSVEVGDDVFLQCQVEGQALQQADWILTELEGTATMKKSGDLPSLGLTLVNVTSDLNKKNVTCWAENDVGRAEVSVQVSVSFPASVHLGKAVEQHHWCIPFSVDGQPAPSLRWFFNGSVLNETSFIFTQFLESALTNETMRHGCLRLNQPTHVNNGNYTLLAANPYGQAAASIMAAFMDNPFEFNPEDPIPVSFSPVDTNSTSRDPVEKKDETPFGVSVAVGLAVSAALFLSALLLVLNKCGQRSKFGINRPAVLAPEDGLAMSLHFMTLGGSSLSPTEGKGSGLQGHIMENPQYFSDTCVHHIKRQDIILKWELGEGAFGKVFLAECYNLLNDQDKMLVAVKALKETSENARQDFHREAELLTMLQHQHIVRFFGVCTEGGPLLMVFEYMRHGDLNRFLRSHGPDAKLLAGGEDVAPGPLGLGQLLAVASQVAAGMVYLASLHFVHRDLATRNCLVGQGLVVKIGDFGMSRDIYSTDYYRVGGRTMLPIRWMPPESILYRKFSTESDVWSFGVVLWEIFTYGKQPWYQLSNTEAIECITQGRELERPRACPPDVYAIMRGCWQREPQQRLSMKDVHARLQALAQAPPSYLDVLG
Description: as §1
Analogs were tested for their ability to affect binding of ^125 I-NGF (73.1 μCi/μg NEN, DuPont). […] After 15 min, ^125 I-NGF was added to a final concentration of 0.4-2 nM (^~ 40,000 cpm) and the mixtures were further incubated for 40 min at 4° C. Cells were then washed in binding buffer, pelleted, and cell-associated ^125 I-NGF was determined. […] Assays were performed >4 times, each from at least three different synthesis (inhibitory analogs) or 1-3 times each from 2 different synthesis (non-inhibitory analogs). Receptor saturation experiments were similarly performed with increasing concentrations of ^125 I-NGF ligand and a constant dose of inhibitor.
To determine the mechanism of biological antagonistic activity by the cyclic analogs, ^125 I-NGF binding measurements were performed with cell lines expressing both p75 and trkA receptors (PC12 cells and R7 transfectants) or only trkA receptors (E25 transfectants) (Table III). Analogs were used at a concentration of ^~ 40 μM.
as §6, §7

[4] = tested on: bFGF mediated neurite outgrowth in PC12 cells; assay: bFGF mediated neurite outgrowth in PC12 cells (specificity control); type: cell-based, rat; settings: analog ~10 μM, 50 ng/ml bFGF
Description: as §2, §3

PC12 cells = assay: Toxicity control: cell death of PC12 cells after culture with the compounds; type: cell-based, rat

With “A N V S R S P E G (ANVSRSPEG) [R(59-67), randomized 59-67 control]” as the substance, how does the “INHIBITION OF NEURITE OUTGROWTH (1)” value [1] read?
Its value is “+ (equivalent to 25 ng/ml NGF)”.

Which results are given for “A T D I K G K E V (ATDIKGKEV) [L(28-36), linear 28-36 control]”?
% INHIBITION of 125I-NGF binding, E25 (trkA) [2]: 6.4 ± 12.4%; % INHIBITION of 125I-NGF binding, R7 (trkA-p75) [3]: -11.3%; % INHIBITION of 125I-NGF binding, PC12 (trkA-p75) (PC12 (trkA-p75)): 5.0%

For Fmoc-X C A S N P V E S C X [C(60-66)], which “INHIBITION OF NEURITE OUTGROWTH (1)” value [1] is on record?
The value was “++ (equivalent to 12.5 ng/ml NGF)”.

What does the source list for Fmoc-X C D I K G K E C X [C(30-35)]?
effect on 125I-NGF binding to E25 cells (in words) [2]: inhibited NGF binding to E25 cells; % INHIBITION of 125I-NGF binding, E25 (trkA) [2]: 51.1 ± 0.7%; effect on bFGF mediated PC12 neurite outgrowth (in words) [4]: did not affect; effect on 125I-NGF binding to R7 cells (in words) [3]: did not affect NGF binding to R7 cells; % INHIBITION of 125I-NGF binding, R7 (trkA-p75) [3]: 0.44 ± 0.6%; effect on NGF mediated PC12 neurite outgrowth (in words) [1]: did not affect

With Fmoc-X C I K G K E C X [C(31-35)] as the substance, how does the “INHIBITION OF NEURITE OUTGROWTH (1)” value [1] read?
Its value is “++ (equivalent to 12.5 ng/ml NGF)”.

What does the source list for Fmoc-X C I N N S V C X [C(44-48)]?
effect on 125I-NGF binding to E25 cells (in words) [2]: did not inhibit; also recorded: without being effective at all in binding assays in E25 cells; % INHIBITION of 125I-NGF binding, E25 (trkA) [2]: -12.5 ± 5.4%; effect on bFGF mediated PC12 neurite outgrowth (in words) [4]: did not affect; effect on NGF mediated PC12 neurite outgrowth (in words) [1]: significantly inhibited; also recorded: effective in inhibiting biological assays in PC12 cells; INHIBITION OF NEURITE OUTGROWTH (1) [1]: +++ (equivalent to 6.25 ng/ml NGF)

Which results are given for Fmoc-X C K G K E C X [C(32-35)]?
effect on 125I-NGF binding to E25 cells (in words) [2]: inhibited NGF binding to E25 cells; % INHIBITION of 125I-NGF binding, E25 (trkA) [2]: 30.7 ± 10.5%; effect on 125I-NGF binding to R7 cells (in words) [3]: did not affect NGF binding to R7 cells; % INHIBITION of 125I-NGF binding, R7 (trkA-p75) [3]: -4.5 ± 6.5%; % INHIBITION of 125I-NGF binding, PC12 (trkA-p75) (PC12 (trkA-p75)): 9.0%; INHIBITION OF NEURITE OUTGROWTH (1) [1]: ++ (equivalent to 12.5 ng/ml NGF)

For Fmoc-X C N I N N S C X [C(43-47)], which “INHIBITION OF NEURITE OUTGROWTH (1)” value [1] is on record?
The value was “+ (equivalent to 25 ng/ml NGF)”.

Fmoc-X C N I N N S V C X [C(43-48)] was tested. Which “effect on 125I-NGF binding to E25 cells (in words)” value [2] did it give?
Its value is “did not inhibit; also recorded: without being effective at all in binding assays in E25 cells”.

And the “% INHIBITION of 125I-NGF binding, E25 (trkA)” value [2]?
Its value is -2.7 ± 8.5%.

What about the “effect on bFGF mediated PC12 neurite outgrowth (in words)” value [4] of the same substance?
Its value is “did not affect; also recorded: bFGF was not affected”.

And the “% INHIBITION of 125I-NGF binding, R7 (trkA-p75)” value [3]?
Its value is 5.0%.

And the “effect on NGF mediated PC12 neurite outgrowth (in words)” value [1]?
Its value is “significantly inhibited; also recorded: effective in inhibiting biological assays in PC12 cells”.

And the “INHIBITION OF NEURITE OUTGROWTH (1)” value [1]?
Its value is “+++ (equivalent to 6.25 ng/ml NGF)”.

Which “cell death / necrosis after culture with the compounds” value (PC12 cells) does the source give for Fmoc-X C S N P V E S C X [C(61-66)] here?
The value was “did cause necrosis”.
